Target: T1, Somatostatin Receptor 2 (SSTR2) (Homo sapiens, UniProt P30874)
T1 construct: expressed in transfected cells
Assay: Biochemical Assay for Activation of Somatostatin Receptor 2 (SSTR2), Cisbio HTRF cAMP assay
Format: cell-based
Details: average pEC50; HTRF cAMP assay in stably-transfected cell line expressing SSTR2; cells incubated with compounds for 1-2h
Method: Biochemical Assay for Activation of Somatostatin Receptor 2 (SSTR2)
Agonistic activation of SSTRs leads to an […] production of intracellular cAMP levels. Cisbio's homogeneous time-resolved fluorescence (HTRF) cAMP assay was used to measure cAMP concentration in an high-throughput format. Increase in intracellular cAMP concentrations was measuring using a stably-transfected cell line expressing SSTR2. Test compounds were dissolved in DMSO. Cells were incubated with compounds for 1-2h, and subsequently competitive binding of cAMP produced due to the activation of SSTR2 by the test compounds was measured using the Cisbio cAMP Gs dynamic assay system (Perkin Elmer, Bedford, MA).
The average pEC50 was determined for the test compounds.

T1 sequence (P30874 whole entry, species assumed): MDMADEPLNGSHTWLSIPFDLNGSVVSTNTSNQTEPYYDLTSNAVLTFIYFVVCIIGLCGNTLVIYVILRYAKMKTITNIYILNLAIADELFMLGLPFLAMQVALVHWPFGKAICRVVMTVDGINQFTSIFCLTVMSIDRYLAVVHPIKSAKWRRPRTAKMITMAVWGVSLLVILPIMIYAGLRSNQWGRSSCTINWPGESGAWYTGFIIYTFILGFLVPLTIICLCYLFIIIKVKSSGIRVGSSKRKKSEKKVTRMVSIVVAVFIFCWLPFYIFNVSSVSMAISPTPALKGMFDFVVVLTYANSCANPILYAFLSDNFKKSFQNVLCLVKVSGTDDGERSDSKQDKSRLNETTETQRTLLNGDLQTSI

Structure (SMILES) | EC50 [nM]
COc1cc(F)cc(-c2cnc3[nH]c(-c4cccc(Br)c4O)nc3c2N2CCC(N)CC2)c1 [Compound 57] | 10
COc1cc(F)cc(-c2cnc3[nH]c(-c4ccc5[nH]c(=O)[nH]c5c4)nc3c2N2CC[C@@H](N)[C@H](OC)C2)c1 [Compound 49] | > 10000
NC1CC(Oc2c(-c3cc(F)cc(F)c3)cnc3ccc(-c4cc(F)cc(F)c4)cc23)C1 (stereo not drawn) [Compound 17] | 12.6
O=C1NCCCCNC2CCN(CC2)c2c(-c3cc(F)cc(F)c3)cnc3ccc(cc23)-c2cccnc21 [Compound 84] | > 10000
COc1cc(F)cc(-c2cnc3c(nc(-c4cc(F)cc(C(N)=O)c4)n3C)c2N2CCC(N)CC2)c1 [Compound 33] | 1580
Cc1cc(F)cc(-c2cnc3ccc4cc3c2N2CCC(CC2)NCC[C@@H](N=[N+]=[N-])COc2c(C#N)cccc2-4)c1 (single isomer, unassigned) [Compound 96] | 0.794
CCOC(=O)c1cc(-c2cc(F)cc(F)c2)cc2c(N3CCC(N)CC3)c(-c3cc(F)cc(F)c3)cnc12 [Compound 147] | 0.0398
Cc1cc(F)cc(-c2cnc3ccc4cc3c2N2CCC(CC2)NCC(N)CCOc2c(C#N)cccc2-4)c1 (stereo not drawn) [Compound 95, 7-amino-23-(3-fluoro-5-methylphenyl)-4-oxa-9-aza-2(4,6)-quinolina-1(1,4)-piperidina-3(1.2)-benzenacyclononaphane-33-carbonitrile] | 7.94
CC(C)(C)OC(=O)NC1CCN(c2c(-c3cc(F)cc(F)c3)cnc3c(C(=O)O)cc(-c4cc(F)cc(F)c4)cc23)CC1 [Compound 148] | > 794
COc1cc(F)cc(-c2cnc3[nH]c(-c4cc(F)cc(C(N)=O)c4)nc3c2N2CC[C@@H](N)[C@H](OC)C2)c1 [Compound 50] | > 10000
N#Cc1cccc(-c2ccc3ncc(-c4cc(F)cc(F)c4)c(N4CCC(O)CC4)c3c2)c1NCCCN [Compound 146] | 398
Cc1cc(F)cc(-c2cnc3ccc4cc3c2N2CCC(CC2)NCCCCOc2c(C(N)=O)cccc2-4)c1 [Compound 74] | 0.251
Cc1cc(F)cc(-c2cnc3ccc4cc3c2N2CCC(CC2)NCC(CO)CCOc2c(C#N)cccc2-4)c1 (single isomer, unassigned) [Compound 90] | 15.8
N[C@@H]1CC[C@H](Oc2c(-c3cc(F)cc(F)c3)cnc3ccc(-c4cc(F)cc(F)c4)cc23)C1 [Compound 12, (1R,3S)-3-((3,6-bis(3,5-difluorophenyl)quinolin-4-yl)oxy) cyclopentanamine] | 15.8
Cc1cc(F)cc(-c2cnc3ccc(-c4ccc5[nH]c(=O)[nH]c5c4)cc3c2O[C@@H]2CC[C@H](N)C2)c1 [Compound 8] | 6.31
NC1CCN(c2c(-c3cc(F)cc(F)c3)cnc3cc(-c4cc(F)cc(F)c4)sc23)CC1 [Compound 133] | 1580
COCOc1c(C#N)cccc1-c1ccc2ncc(-c3cc(F)cc(F)c3)c(-n3ccc([N+](=O)[O-])c3)c2c1 [Compound 143] | > 10000
N#Cc1cccc2c1OCCOCCNC1CCN(CC1)c1c(-c3cc(F)cc(F)c3)cnc3ccc-2cc13 [Compound 70] | 0.794
N#Cc1cccc2c1OCCC(CO)NC1CCN(CC1)c1c(-c3cc(F)cc(F)c3)cnc3ccc-2cc13 (stereo not drawn) [Compound 92] | > 10000

Structure (SMILES) | EC50 [nM]
Cn1c(-c2cccc(Br)c2O)nc2c(N3CCC(NC(=O)OC(C)(C)C)CC3)c(-c3cc(F)cc(F)c3)cnc21 [Compound 40] | > 10000
NCc1cc(-c2cc(F)cc(F)c2)cc2c(N3CCC(N)CC3)c(-c3cc(F)cc(F)c3)cnc12 [Compound 159] | 0.398
N#Cc1cccc(-c2cc3ncc(-c4cc(F)cc(F)c4)c(N4CCC(N)CC4)c3s2)c1O [Compound 132] | > 10000
O=C1NCCNC2CCN(CC2)c2c(-c3cc(F)cc(F)c3)cnc3ccc(cc23)-c2cccc1n2 [Compound 78, 23-(3,5-difluorophenyl)-4,7-diaza-2(6,4)-quinolina-1(2,6)-pyridina-3(1.4)-piperidina-cyclooctaphan-8-one] | 2510
C=CCOc1c(C#N)cccc1-c1ccc2ncc(-c3cc(F)cc(F)c3)c(N3CCC(N)CC3)c2c1 [Compound 142] | 0.501
CO[C@@H]1CN(c2c(-c3cc(F)cc(F)c3)cnc3[nH]c(-c4ccc5[nH]c(=O)[nH]c5c4)nc23)CC[C@H]1N [Compound 46, 5-(7-((3R,4R)-4-amino-3-methoxypiperidin-1-yl)-6-(3,5-difluorophenyl)-3H-imidazo[4,5-b]pyridin-2-yl)-1,3-dihydro-2H-benzo[d]imidazol-2-one] | > 10000
Cc1cc(F)cc(-c2cnc3ccc4cc3c2N2CCC(CC2)NCC[C@@H](O)COc2c(C#N)cccc2-4)c1 (single isomer, unassigned) [Compound 102] | 398
N#Cc1cccc(-c2cc3c(N4CCC(N)CC4)c(-c4cc(F)cc(F)c4)cnc3o2)c1O [Compound 131] | > 10000
NC(=O)c1cccc2c1OCCCNC1CCN(CC1)c1c(-c3cc(F)cc(F)c3)cnc3ccc-2cc13 [Compound 67] | 0.794
COc1cc(F)cc(-c2cnc3[nH]c(-c4cccc(C#N)c4O)nc3c2N2CC[C@@H](N)[C@H](OC)C2)c1 [Compound 51] | > 10000
Cc1cc(F)cc(-c2cnc3ccc4cc3c2N2CCC(CC2)NCC(N=[N+]=[N-])CCOc2c(C#N)cccc2-4)c1 (stereo not drawn) [Compound 94, 7-azido-23-(3-fluoro-5-methylphenyl)-4-oxa-9-aza-2(4.6)-quinolina-1(1.4)-piperidina-3(1,2)-benzenacyclononaphane-33-carbonitrile] | 158
COc1c(C#N)cccc1-c1ccc2ncc(-c3cc(F)cc(F)c3)c(N3CCC(N)CC3)c2c1 [Compound 154] | 0.316
COc1cc(F)cc(-c2cnc3c(nc(-c4cccc(C#N)c4O)n3C)c2N2CC[C@@H](N)[C@H](OC)C2)c1 [Compound 29] | > 10000
CO[C@@H]1CN(c2c(-c3cc(C)cc(F)c3)cnc3[nH]c(-c4cccc(C#N)c4O)nc23)CC[C@H]1N [Compound 54] | 2510
C=COc1c(C#N)cccc1-c1ccc2ncc(-c3cc(F)cc(F)c3)c(N3CC[C@H](N)[C@@H](O)C3)c2c1 [Compound 153] | 3.16
Cn1c(-c2cc(F)cc(C(N)=O)c2)nc2c(N3CCC(N)CC3)c(-c3cc(F)cc(F)c3)cnc21 [Compound 38] | 2000
COc1cc(F)cc(-c2cnc3[nH]c(-c4cc(F)cc(C(N)=O)c4)nc3c2N2CCC(N)CC2)c1 [Compound 58] | 501
CC(C)(C)OC(=O)NC1CCN(c2c(-c3cc(F)cc(F)c3)cnc3nc(-c4cccc(Br)c4O)[nH]c23)CC1 [Compound 63] | > 10000
Cc1cc(F)cc(-c2cnc3ccc(-c4cccc(C#N)c4O)cc3c2N2CCC(O)CC2)c1 [Compound 164] | > 10000

Structure (SMILES) | EC50 [nM]
Cc1cc(F)cc(-c2cnc3ccc(-c4cccc(C#N)c4O)cc3c2N2CCC(=O)CC2)c1 [Compound 163] | > 10000
NC1CCN(c2c(-c3cc(F)cc(F)c3)cnc3nc(-c4cccc(Br)c4O)[nH]c23)CC1 [Compound 64] | 31.6
COCOc1c(C#N)cccc1-c1ccc2ncc(-c3cc(F)cc(F)c3)c(N3CC4(CNC4)C3)c2c1 [Compound 138] | 6310
Fc1cc(F)cc(-c2cnc3ccc4cc3c2N2CCC(CC2)NCCCCOc2cccc-4c2)c1 [Compound 68] | 7.94
N#Cc1cccc(-c2ccc3ncc(-c4cc(F)cc(F)c4)c(-c4ccc(N)cc4)c3c2)c1O [Compound 122, 3-(4-(4-aminophenyl)-3-(3,5-difluorophenyl)quinolin-6-yl)-2-hydroxy benzonitrile] | > 10000
CN1CCCCNC2CCN(CC2)c2c(-c3cc(F)cc(F)c3)cnc3ccc(cc23)-c2cccc(c2)C1=O [Compound 81, 23-(3,5-difluorophenyl)-5-methyl-5, 10-diaza-2(4, 6)-quinolina-1(1, 4)-piperidina-3(1,3)-benzenacyclodecaphan-4-one] | 2000
Cc1cc(F)cc(-c2cnc3c(nc(-c4ccc5[nH]c(=O)[nH]c5c4)n3C)c2N2CCC(N)CC2)c1 [Compound 36] | > 10000
COc1cc(F)cc(-c2cnc3[nH]c(-c4ccc5[nH]c(=O)[nH]c5c4)nc3c2N2CCC(N)CC2)c1 [Compound 56] | 1580
CNCCCNc1c(C(=O)Nc2ccc(F)c(F)c2)cncc1-c1cc(F)cc(F)c1 [Compound 117] | 2000
N#Cc1cccc(-c2ccc3ncc(-c4cc(F)cc(F)c4)c(OC4CCCC(N)C4)c3c2)c1O (stereo not drawn) [Compound 22] | > 10000
NC1CCN(c2c(-c3cc(F)cc(F)c3)cnc3c2C(=O)N(c2ccc(F)c(F)c2)CC3)CC1 [Compound 110] | 158
Cc1cc(F)cc(-c2cnc3ccc(-c4cccc(C#N)c4O)cc3c2N2CCC(NC(=N)N)CC2)c1 [Compound 136] | 20
N#Cc1cccc(-c2ccc3ncc(-c4cc(F)cc(F)c4)c(C4=CCC(N)CC4)c3c2)c1O (stereo not drawn) [Compound 125] | 5.01
Cc1cc(F)cc(-c2cnc3ccc(-c4cc(F)cc(C(N)=O)c4)cc3c2O[C@@H]2CC[C@@H](N)C2)c1 [Compound 4] | 0.398
NC(=O)c1cccc2c1OCCCCNC1CCN(CC1)c1c(-c3cc(F)cc(F)c3)cnc3ccc-2cc13 [Compound 75] | 2
COc1cc(F)cc(-c2cnc3[nH]c(-c4cccc(C#N)c4O)nc3c2N2CCC(N)CC2)c1 [Compound 59] | 631
CNCCCn1c(=O)n(-c2ccc(F)c(F)c2)c(=O)c2cncc(-c3cc(F)cc(F)c3)c21 [Compound 118] | > 10000
CNCCCn1c(=O)n2c3cc(F)c(F)cc3nc2c2cncc(-c3cc(F)cc(F)c3)c21 [Compound 106, 4-(3,5-difluorophenyl)-9,10-difluoro-5-(3-(methylamino)propyl) benzo[4,5]imidazo[1,2-c]pyrido[3,4-e]pyrimidin-6(5H)-one] | 2000
Nc1nc(Cl)ccc1C(=O)Nc1cncc(-c2ccccc2)c1N1CCC(N)CC1 [Compound 165] | 12.6

Reference: patent US20260053794A1, “SOMATOSTATIN RECEPTOR 2 AGONISTS AND USES THEREOF” (Exelixis, Inc., priority 2022, published 2026)
